Columns and labels:
[1] = DRUGMATRIX: GABAA, Muscimol, Central radioligand binding (ligand: [3H] Muscimol); format: cell membranes, Rattus norvegicus, Wistar, Brain, Membrane; conditions: Not Active = under 50% inhibition at 10 µM
[2] = target: T1, Cathepsin G (Homo sapiens, UniProt P08311); format: tissue-based; conditions: neutrophil;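 note: inhibition of Cathepsin G enzyme activity, tested on an AMC-conjugated peptide substrate; in other assays of this panel Not Active means under 50% inhibition at 10 µM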
T1 sequence (P08311 whole entry): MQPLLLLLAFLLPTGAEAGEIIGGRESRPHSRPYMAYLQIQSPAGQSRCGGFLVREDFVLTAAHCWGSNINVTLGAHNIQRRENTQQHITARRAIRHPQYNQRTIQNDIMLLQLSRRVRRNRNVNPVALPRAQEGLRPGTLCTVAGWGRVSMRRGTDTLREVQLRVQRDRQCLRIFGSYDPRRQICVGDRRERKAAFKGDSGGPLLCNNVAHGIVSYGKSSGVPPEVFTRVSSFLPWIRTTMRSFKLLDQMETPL

[3] = target: T2, D(4) dopamine receptor (Homo sapiens, UniProt P21917); assay: DRUGMATRIX: Dopamine D4.2 radioligand binding (ligand: [3H] Spiperone); format: cell membranes, CHO-K1, Membrane; conditions: cho-k1; Not Active = under 50% inhibition at 10 µM
T2 sequence (P21917 whole entry): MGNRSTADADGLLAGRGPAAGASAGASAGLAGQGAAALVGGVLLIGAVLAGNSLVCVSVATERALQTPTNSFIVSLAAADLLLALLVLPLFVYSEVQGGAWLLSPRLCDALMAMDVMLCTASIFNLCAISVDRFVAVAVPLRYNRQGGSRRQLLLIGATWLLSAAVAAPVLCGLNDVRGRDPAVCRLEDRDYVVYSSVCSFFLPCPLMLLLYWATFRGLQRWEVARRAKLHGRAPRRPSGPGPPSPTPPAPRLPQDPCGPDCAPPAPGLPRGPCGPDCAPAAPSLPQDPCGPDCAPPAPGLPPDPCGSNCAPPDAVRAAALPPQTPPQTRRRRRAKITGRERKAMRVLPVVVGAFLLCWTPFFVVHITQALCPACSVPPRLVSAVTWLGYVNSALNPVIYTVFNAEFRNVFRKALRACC

[4] = target: T3, Caspase-1 (Homo sapiens, UniProt P29466); parameters: species or system Escherichia coli;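 note: Caspase-1 enzyme inhibition assay with a peptide substrate; in other assays of this panel Not Active means under 50% inhibition at 10 µM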
T3 sequence (P29466 whole entry): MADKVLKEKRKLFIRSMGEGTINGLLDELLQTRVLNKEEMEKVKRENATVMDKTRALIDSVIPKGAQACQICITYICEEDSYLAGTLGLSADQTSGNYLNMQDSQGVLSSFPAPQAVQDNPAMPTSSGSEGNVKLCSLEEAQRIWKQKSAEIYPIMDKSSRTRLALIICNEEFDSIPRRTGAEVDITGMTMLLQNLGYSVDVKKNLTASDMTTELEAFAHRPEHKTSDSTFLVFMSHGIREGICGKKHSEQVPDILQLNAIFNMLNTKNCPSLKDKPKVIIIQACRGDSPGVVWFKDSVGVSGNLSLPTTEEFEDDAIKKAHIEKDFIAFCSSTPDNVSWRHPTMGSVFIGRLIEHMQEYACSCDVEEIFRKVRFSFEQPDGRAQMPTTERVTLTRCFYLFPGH

[5] = target: Acetylcholinesterase (Homo sapiens, UniProt P22303); assay: DRUGMATRIX: Acetylcholinesterase enzyme inhibition (substrate: acetylthiocholine); format: cell-based, HEK293; conditions: hek293; Not Active = under 50% inhibition at 10 µM
[6] = target: T4, Receptor-type tyrosine-protein phosphatase C (Homo sapiens, UniProt P08575); parameters: species or system Escherichia coli;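 note: inhibition of CD45 enzyme activity measured using DiFMUP as substrate; in other assays of this panel Not Active means under 50% inhibition at 10 µM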
T4 sequence (P08575 whole entry): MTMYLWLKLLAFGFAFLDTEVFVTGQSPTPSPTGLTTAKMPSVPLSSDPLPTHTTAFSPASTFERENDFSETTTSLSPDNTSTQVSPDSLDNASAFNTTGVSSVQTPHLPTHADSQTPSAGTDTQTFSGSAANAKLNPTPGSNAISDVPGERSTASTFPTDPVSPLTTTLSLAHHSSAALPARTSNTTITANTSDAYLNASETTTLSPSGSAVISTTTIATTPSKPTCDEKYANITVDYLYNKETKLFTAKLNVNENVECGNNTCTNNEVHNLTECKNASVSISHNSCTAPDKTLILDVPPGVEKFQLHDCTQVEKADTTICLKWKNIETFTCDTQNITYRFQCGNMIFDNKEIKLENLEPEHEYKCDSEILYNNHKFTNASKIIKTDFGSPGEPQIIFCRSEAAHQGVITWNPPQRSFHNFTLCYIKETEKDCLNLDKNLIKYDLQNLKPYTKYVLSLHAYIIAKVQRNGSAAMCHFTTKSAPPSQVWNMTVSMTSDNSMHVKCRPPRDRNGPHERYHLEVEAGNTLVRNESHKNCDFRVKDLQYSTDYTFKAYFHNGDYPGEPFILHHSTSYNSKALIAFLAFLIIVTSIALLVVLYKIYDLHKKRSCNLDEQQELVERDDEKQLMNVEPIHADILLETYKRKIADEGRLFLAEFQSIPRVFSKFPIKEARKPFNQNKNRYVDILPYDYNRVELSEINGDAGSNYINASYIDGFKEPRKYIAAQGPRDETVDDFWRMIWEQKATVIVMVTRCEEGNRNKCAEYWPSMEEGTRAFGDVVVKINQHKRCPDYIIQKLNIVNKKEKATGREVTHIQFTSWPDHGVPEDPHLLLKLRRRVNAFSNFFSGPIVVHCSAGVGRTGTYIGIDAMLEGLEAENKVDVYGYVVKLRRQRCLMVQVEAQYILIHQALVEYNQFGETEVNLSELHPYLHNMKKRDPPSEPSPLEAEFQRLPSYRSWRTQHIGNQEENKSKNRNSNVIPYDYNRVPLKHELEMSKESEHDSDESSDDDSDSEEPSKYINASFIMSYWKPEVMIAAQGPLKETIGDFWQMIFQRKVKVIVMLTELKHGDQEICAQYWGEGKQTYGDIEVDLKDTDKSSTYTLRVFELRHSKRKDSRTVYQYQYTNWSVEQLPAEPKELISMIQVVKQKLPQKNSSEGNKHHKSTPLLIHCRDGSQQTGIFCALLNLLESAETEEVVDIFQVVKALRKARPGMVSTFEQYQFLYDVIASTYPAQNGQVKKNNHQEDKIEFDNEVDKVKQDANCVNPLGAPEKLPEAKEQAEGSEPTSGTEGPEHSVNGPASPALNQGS

[7] = target: Mitogen-activated protein kinase 14 (Homo sapiens, UniProt Q16539); parameters: species or system Escherichia coli;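 note: inhibition of p38alpha enzyme activity in a biochemical kinase assay, with myelin basic protein serving as substrate; in other assays of this panel Not Active means under 50% inhibition at 10 µM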
[8] = target: D(3) dopamine receptor (Homo sapiens, UniProt P35462); assay: DRUGMATRIX: Dopamine D3 radioligand binding (ligand: [3H] Spiperone); format: cell membranes, CHO, Membrane; conditions: for Ki: read-out: Ki
[9] = target: C-C chemokine receptor type 2 (Homo sapiens, UniProt P41597); format: cell membranes, CHO-K1, Membrane; conditions: cho-k1; note: in other assays of this panel Not Active means under 50% inhibition at 10 µM
C-C chemokine receptor type 2, sequence (P41597 whole entry): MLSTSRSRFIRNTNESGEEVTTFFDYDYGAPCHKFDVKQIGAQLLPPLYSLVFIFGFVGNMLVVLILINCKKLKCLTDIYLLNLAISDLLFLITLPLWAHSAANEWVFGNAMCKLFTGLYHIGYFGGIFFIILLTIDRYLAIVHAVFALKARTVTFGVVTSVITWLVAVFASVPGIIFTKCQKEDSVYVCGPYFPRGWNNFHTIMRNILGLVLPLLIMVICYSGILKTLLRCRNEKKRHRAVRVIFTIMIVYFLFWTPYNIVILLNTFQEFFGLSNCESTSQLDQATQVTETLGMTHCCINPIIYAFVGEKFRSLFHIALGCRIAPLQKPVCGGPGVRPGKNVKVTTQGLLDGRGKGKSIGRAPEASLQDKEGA

Acetylcholinesterase, sequence (P22303 whole entry): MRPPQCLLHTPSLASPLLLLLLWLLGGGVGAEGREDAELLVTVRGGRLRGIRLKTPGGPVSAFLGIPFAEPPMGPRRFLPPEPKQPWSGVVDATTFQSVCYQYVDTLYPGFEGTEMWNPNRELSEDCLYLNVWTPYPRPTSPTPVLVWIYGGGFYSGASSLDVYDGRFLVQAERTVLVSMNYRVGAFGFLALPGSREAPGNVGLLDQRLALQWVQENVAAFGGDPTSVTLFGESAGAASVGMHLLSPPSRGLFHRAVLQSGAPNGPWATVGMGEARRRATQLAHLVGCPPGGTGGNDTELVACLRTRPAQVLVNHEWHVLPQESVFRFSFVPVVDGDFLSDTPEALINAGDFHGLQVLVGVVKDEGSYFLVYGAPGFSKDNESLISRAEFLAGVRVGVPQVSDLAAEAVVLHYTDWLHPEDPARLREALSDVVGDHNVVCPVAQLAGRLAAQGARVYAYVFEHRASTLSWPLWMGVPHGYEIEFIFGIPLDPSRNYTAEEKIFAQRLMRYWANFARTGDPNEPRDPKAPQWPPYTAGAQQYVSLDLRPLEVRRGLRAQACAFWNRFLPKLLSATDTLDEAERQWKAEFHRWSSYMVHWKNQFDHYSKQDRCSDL
Mitogen-activated protein kinase 14, sequence (Q16539 whole entry): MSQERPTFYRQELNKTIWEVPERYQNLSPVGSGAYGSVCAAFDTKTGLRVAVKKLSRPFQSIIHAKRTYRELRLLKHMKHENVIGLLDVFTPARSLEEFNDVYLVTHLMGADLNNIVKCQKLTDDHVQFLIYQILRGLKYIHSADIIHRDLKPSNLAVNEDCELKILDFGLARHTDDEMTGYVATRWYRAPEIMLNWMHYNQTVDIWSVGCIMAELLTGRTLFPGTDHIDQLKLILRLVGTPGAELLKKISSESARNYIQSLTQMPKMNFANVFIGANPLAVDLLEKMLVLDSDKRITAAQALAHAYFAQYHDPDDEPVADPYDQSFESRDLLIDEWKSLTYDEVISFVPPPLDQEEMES
D(3) dopamine receptor, sequence (P35462 whole entry): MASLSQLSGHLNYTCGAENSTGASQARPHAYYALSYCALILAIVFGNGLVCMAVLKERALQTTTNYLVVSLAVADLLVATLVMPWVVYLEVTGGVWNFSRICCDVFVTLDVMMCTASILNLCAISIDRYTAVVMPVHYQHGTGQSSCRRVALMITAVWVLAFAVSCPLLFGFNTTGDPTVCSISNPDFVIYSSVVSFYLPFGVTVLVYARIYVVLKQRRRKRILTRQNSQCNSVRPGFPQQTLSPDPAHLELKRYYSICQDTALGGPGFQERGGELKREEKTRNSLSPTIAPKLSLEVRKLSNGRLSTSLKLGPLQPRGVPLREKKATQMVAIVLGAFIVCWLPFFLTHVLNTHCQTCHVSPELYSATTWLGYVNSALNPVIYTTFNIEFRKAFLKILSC

CCC1(c2ccccc2)C(=O)NCNC1=O [PRIMIDONE]
IC50 [1]: Not Active
Ki [1]: Not Active
IC50 [2]: Not Active
IC50 [3]: Not Active
IC50 [4]: Not Active
IC50 [5]: Not Active
IC50 [6]: Not Active
IC50 [7]: Not Active
IC50 ([8]; cho): Not Active
IC50 [9]: Not Active

CNCCC=C1c2ccccc2CCc2ccccc21 [NORTRIPTYLINE]
IC50 [1]: Not Active
Ki [1]: Not Active
IC50 [2]: Not Active
IC50 [3]: Not Active
IC50 [4]: Not Active
IC50 [5]: Not Active
IC50 [6]: Not Active
IC50 [7]: Not Active
IC50 ([8]; read-out: IC50): 179 nM
Ki [8]: 61 nM
IC50 [9]: Not Active

CCOC(=O)c1ccc(N)cc1 [BENZOCAINE]
IC50 [1]: Not Active
Ki [1]: Not Active
IC50 [2]: Not Active
IC50 [3]: Not Active
IC50 [4]: Not Active
IC50 [5]: Not Active
IC50 [6]: Not Active
IC50 [7]: Not Active
IC50 ([8]; cho): Not Active
IC50 [9]: Not Active

Fc1ccc([C@@H]2CCNC[C@H]2COc2ccc3c(c2)OCO3)cc1 [PAROXETINE]
IC50 [1]: Not Active
Ki [1]: Not Active
IC50 [2]: Not Active
IC50 [3]: Not Active
IC50 [4]: Not Active
IC50 [5]: Not Active
IC50 [6]: Not Active
IC50 [7]: Not Active
IC50 ([8]; cho): Not Active
IC50 [9]: Not Active

CC(C)NC[C@H](O)COc1cccc2[nH]ccc12
IC50 [1]: Not Active
Ki [1]: Not Active
IC50 [2]: Not Active
IC50 [3]: Not Active
IC50 [4]: Not Active
IC50 [5]: Not Active
IC50 [6]: Not Active
IC50 [7]: Not Active
IC50 ([8]; cho): Not Active
IC50 [9]: Not Active

CC=CC(=O)N(CC)c1ccccc1C
IC50 [1]: Not Active
Ki [1]: Not Active
IC50 [2]: Not Active
IC50 [3]: Not Active
IC50 [4]: Not Active
IC50 [5]: Not Active
IC50 [6]: Not Active
IC50 [7]: Not Active
IC50 ([8]; cho): Not Active
IC50 [9]: Not Active

CC(=O)O[C@]1(C(C)=O)CC[C@H]2[C@@H]3C=C(Cl)C4=CC(=O)CC[C@]4(C)[C@H]3CC[C@@]21C [CHLORMADINONE ACETATE]
IC50 [1]: Not Active
Ki [1]: Not Active
IC50 [2]: Not Active
IC50 [3]: Not Active
IC50 [4]: Not Active
IC50 [5]: Not Active
IC50 [6]: Not Active
IC50 [7]: Not Active
IC50 ([8]; cho): Not Active
IC50 [9]: Not Active

Cn1cnc([N+](=O)[O-])c1Sc1ncnc2nc[nH]c12 [AZATHIOPRINE]
IC50 [1]: Not Active
Ki [1]: Not Active
IC50 [2]: Not Active
IC50 [3]: Not Active
IC50 [4]: Not Active
IC50 [5]: Not Active
IC50 [6]: Not Active
IC50 [7]: Not Active
IC50 ([8]; cho): Not Active
IC50 [9]: Not Active

Oc1c(Cl)cc(Cl)cc1Sc1cc(Cl)cc(Cl)c1O [BITHIONOL]
IC50 [1]: Not Active
Ki [1]: Not Active
IC50 [2]: Not Active
IC50 [3]: Not Active
IC50 [4]: Not Active
IC50 [5]: Not Active
IC50 [6]: Not Active
IC50 ([7]; read-out: IC50): 318 nM
IC50 ([8]; read-out: IC50): 4220 nM
Ki [8]: 1430 nM
IC50 [9]: Not Active

COC1=CC(=O)C[C@@H](C)[C@]12Oc1c(Cl)c(OC)cc(OC)c1C2=O [GRISEOFULVIN]
IC50 [1]: Not Active
Ki [1]: Not Active
IC50 [2]: Not Active
IC50 [3]: Not Active
IC50 [4]: Not Active
IC50 [5]: Not Active
IC50 [6]: Not Active
IC50 [7]: Not Active
IC50 ([8]; cho): Not Active
IC50 [9]: Not Active

CN1C[C@H](C(=O)N[C@]2(C)O[C@@]3(O)[C@@H]4CCCN4C(=O)[C@H](Cc4ccccc4)N3C2=O)C=C2c3cccc4[nH]cc(c34)C[C@H]21 [ERGOTAMINE]
IC50 [1]: Not Active
Ki [1]: Not Active
IC50 [2]: Not Active
IC50 [3]: Not Active
IC50 [4]: Not Active
IC50 [5]: Not Active
IC50 [6]: Not Active
IC50 [7]: Not Active
IC50 ([8]; read-out: IC50): 4.31 nM
Ki [8]: 1.46 nM
IC50 [9]: Not Active

CCCc1cc(=O)[nH]c(=S)[nH]1 [PROPYLTHIOURACIL]
IC50 [1]: Not Active
Ki [1]: Not Active
IC50 [2]: Not Active
IC50 [3]: Not Active
IC50 [4]: Not Active
IC50 [5]: Not Active
IC50 [6]: Not Active
IC50 [7]: Not Active
IC50 ([8]; cho): Not Active
IC50 [9]: Not Active

Nc1nc2c(ncn2COC(CO)CO)c(=O)[nH]1 [GANCICLOVIR]
IC50 [1]: Not Active
Ki [1]: Not Active
IC50 [2]: Not Active
IC50 [3]: Not Active
IC50 [4]: Not Active
IC50 [5]: Not Active
IC50 [6]: Not Active
IC50 [7]: Not Active
IC50 ([8]; cho): Not Active
IC50 [9]: Not Active

Reference: ChEMBL document CHEMBL1909046, “DrugMatrix in vitro pharmacology data”
